Assay results published in patent US11306078B2, “Piperidine CXCR7 receptor modulators” (IDORSIA PHARMACEUTICALS LTD., priority 2016, dated 2022).

Each molecule was assayed against human chemokine receptor CXCR7 (Homo sapiens (Human), UniProt P25106) (assay: Tango CXCR7-bla U2OS beta-arrestin recruitment assay (beta-lactamase reporter, FRET), antagonism of CXCL12/SDF1-α). Details: antagonistic effect on CXCR7; Tango CXCR7-bla U2OS cells, CXCL12/SDF1-α at its EC80.
Format: cell-based
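Note: compounds preincubated 15 min before CXCL12 addition, then 22 h at 37 °C, FRET emission ratio read with CCF4-AM substrate after 2 h.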

human chemokine receptor CXCR7, sequence (P25106 whole entry): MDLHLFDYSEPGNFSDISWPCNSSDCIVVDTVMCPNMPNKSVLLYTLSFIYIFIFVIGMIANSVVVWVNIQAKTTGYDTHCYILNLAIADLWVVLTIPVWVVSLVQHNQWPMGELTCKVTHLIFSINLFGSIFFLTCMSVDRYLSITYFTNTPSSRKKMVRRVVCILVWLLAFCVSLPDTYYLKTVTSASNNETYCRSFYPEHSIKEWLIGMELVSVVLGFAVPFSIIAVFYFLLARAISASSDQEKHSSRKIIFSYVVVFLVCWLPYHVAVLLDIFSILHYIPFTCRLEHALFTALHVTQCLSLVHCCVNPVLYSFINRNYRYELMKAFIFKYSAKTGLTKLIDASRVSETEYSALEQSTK

IC50	Compound
526 nM	C[C@@H](NC(=O)[C@@H]1CN(C2CCCCC2)CC[C@H]1NC(=O)c1noc(-c2ccc(F)cc2F)n1)c1cnccn1 [Example 1.16]
16 nM	O=C(N[C@@H]1CCN(C2CCCC2)C[C@H]1C(=O)NC1(c2ccccn2)CC1)c1cc(-c2c(F)cc(F)cc2F)on1 [Example 1.17]
294 nM	O=C(N[C@@H]1CCN(CC2CC2)C[C@H]1C(=O)NC1(c2ncccn2)CC1)c1cc(-c2ccccc2C(F)(F)F)on1 [Example 1.19]
50 nM	O=C(N[C@H]1CCN(CC2CC2)C[C@@H]1C(=O)NC1(c2cnccn2)CC1)c1cc(-c2ccc(F)cc2F)on1 [Example 1.179, (3S,4S)-1-Cyclopropylmethyl-4-{[5-(2,4-difluoro-phenyl)-isoxazole-3-carbonyl]-amino}-piperidine-3-carboxylic acid (1-pyrazin-2-yl-cyclopropyl)-amide]
104 nM	O=C(N[C@H]1CCN(C2CCCC2)C[C@@H]1C(=O)NC1(c2cnccn2)CC1)c1cc(-c2ccc(F)cc2F)on1 [Example 1.181, (3S,4S)-1-Cyclopentyl-4-{[5-(2,4-difluoro-phenyl)-isoxazole-3-carbonyl]-amino}-piperidine-3-carboxylic acid (1-pyrazin-2-yl-cyclopropyl)-amide]
218 nM	O=C(N[C@H]1CCN(C2CCCC2)C[C@@H]1C(=O)NC1(c2cccnn2)CC1)c1cc(-c2ccc(F)cc2F)on1 [Example 1.182, (3S,4S)-1-Cyclopentyl-4-{[5-(2,4-difluoro-phenyl)-isoxazole-3-carbonyl]-amino}-piperidine-3-carboxylic acid (1-pyridazin-3-yl-cyclopropyl)-amide]
3 nM	Cc1cc(C)nc(C2(NC(=O)[C@H]3CN(C4CCCC4)CC[C@@H]3NC(=O)c3cc(-c4ccc(F)cc4F)on3)CC2)n1 [Example 1.184, (3S,4S)-1-Cyclopentyl-4-{[5-(2,4-difluoro-phenyl)-isoxazole-3-carbonyl]-amino}-piperidine-3-carboxylic acid [1-(4,6-dimethyl-pyrimidin-2-yl)-cyclopropyl]-amide]
9 nM	Cc1cc(C)nc(C2(NC(=O)[C@H]3CN(CC4CC4)CC[C@@H]3NC(=O)c3cc(-c4ccc(F)cc4F)on3)CC2)n1 [Example 1.185, (3S,4S)-1-Cyclopropylmethyl-4-{[5-(2,4-difluoro-phenyl)-isoxazole-3-carbonyl]-amino}-piperidine-3-carboxylic acid [1-(4,6-dimethyl-pyrimidin-2-yl)-cyclopropyl]-amide]
670 nM	CCN1CC[C@@H](NC(=O)c2cc(-c3ccc(F)cc3F)on2)[C@H](C(=O)N(C)C)C1 [Example 2.002]
248 nM	CN(C)C(=O)[C@@H]1CN(CC(C)(C)C)CC[C@H]1NC(=O)c1cc(-c2ccc(F)cc2F)on1 [Example 2.02]
34 nM	CC(C)N1CC[C@@H](NC(=O)c2cc(-c3ccc(F)cc3F)on2)[C@H](C(=O)N(C)CCc2ccccc2)C1 [Example 2.003]
74 nM	CN(C)C(=O)[C@@H]1CN(CC2CCCC2)CC[C@H]1NC(=O)c1cc(-c2ccc(F)cc2F)on1 [Example 2.03]
118 nM	CCN1CC[C@@H](NC(=O)c2cc(-c3ccc(F)cc3F)on2)[C@H](C(=O)N(C)CCc2ccccc2)C1 [Example 2.004]
475 nM	O=C(N[C@@H]1CCN([C@@H]2CCCC[C@H]2F)C[C@H]1C(=O)O)c1cc(-c2ccc(F)cc2F)on1 [Example 2.04]
25 nM	CN(CCc1ccccc1)C(=O)[C@@H]1CN(C2CCCC2)CC[C@H]1NC(=O)c1cc(-c2ccc(F)cc2F)on1 [Example 2.005]
15 nM	CN(CCc1ccccc1)C(=O)[C@@H]1CN([C@@H]2CCCC[C@H]2O)CC[C@H]1NC(=O)c1cc(-c2ccc(F)cc2F)on1 [Example 2.05]
15 nM	CN(CCc1ccccc1)C(=O)[C@@H]1CN(CC2CC2)CC[C@H]1NC(=O)c1cc(-c2ccc(F)cc2F)on1 [Example 2.006]
4 nM	O=C(N[C@@H]1CCN([C@@H]2CCCC[C@H]2O)C[C@H]1C(=O)NC1(c2ncccn2)CC1)c1cc(-c2ccc(F)cc2F)on1 [Example 2.06]
88 nM	CC(NC(=O)[C@@H]1CN(C(C)C)CC[C@H]1NC(=O)c1cc(-c2ccc(F)cc2F)on1)c1ccccn1 (stereo partly drawn) [Example 2.007]

IC50	Compound
11 nM	CC(C)CN1CC[C@H](NC(=O)c2cc(-c3ccc(F)cc3F)on2)[C@@H](C(=O)NC2(c3ncccn3)CC2)C1 [Example 2.07]
405 nM	CCN1CC[C@@H](NC(=O)c2cc(-c3ccc(F)cc3F)on2)[C@H](C(=O)NC(C)c2ccccn2)C1 (stereo partly drawn) [Example 2.008]
311 nM	O=C(N[C@@H]1CCN(CC2CC2)C[C@H]1C(=O)NCCc1ccccn1)c1cc(-c2ccc(F)cc2F)on1 [Example 2.08]
10 nM	CC(NC(=O)[C@@H]1CN(C2CCCC2)CC[C@H]1NC(=O)c1cc(-c2ccc(F)cc2F)on1)c1ccccn1 (stereo partly drawn) [Example 2.009]
114 nM	CC(NC(=O)[C@@H]1CN(CC2CC2)CC[C@H]1NC(=O)c1cc(-c2ccc(F)cc2F)on1)c1cccc[n+]1[O-] (stereo partly drawn) [Example 2.011]
28 nM	CC(C1CC1)N1CC[C@@H](NC(=O)c2cc(-c3ccc(F)cc3F)on2)[C@H](C(=O)N(C)C)C1 (stereo partly drawn) [Example 2.013]
269 nM	CN(C)C(=O)[C@@H]1CN([C@@H]2CCC[C@H]2CO)CC[C@H]1NC(=O)c1cc(-c2ccc(F)cc2F)on1 [Example 2.014]
54 nM	CC[C@@H]1CCC[C@H]1N1CC[C@@H](NC(=O)c2cc(-c3ccc(F)cc3F)on2)[C@H](C(=O)N(C)C)C1 [Example 2.015]
80 nM	C[C@@H]1CC[C@H]1N1CC[C@@H](NC(=O)c2cc(-c3ccc(F)cc3F)on2)[C@H](C(=O)N(C)C)C1 [Example 2.016]
49 nM	C[C@@H]1CC[C@H]1N1CC[C@@H](NC(=O)c2cc(-c3ccc(F)cc3F)on2)[C@H](C(=O)N(C)C)C1 [Example 2.016a]
63 nM	C[C@@H]1CC[C@H]1N1CC[C@@H](NC(=O)c2cc(-c3ccc(F)cc3F)on2)[C@H](C(=O)N(C)C)C1 [Example 2.016b]
73 nM	CN(C)C(=O)[C@@H]1CN(C2CCC2(C)C)CC[C@H]1NC(=O)c1cc(-c2ccc(F)cc2F)on1 (stereo partly drawn) [Example 2.017]
145 nM	CN(C)C(=O)[C@@H]1CN(C2CCC(C)(C)C2)CC[C@H]1NC(=O)c1cc(-c2ccc(F)cc2F)on1 (stereo partly drawn) [Example 2.018]
126 nM	CN(C)C(=O)[C@@H]1CN(C2CCCC2)CC[C@H]1NC(=O)c1cc(-c2ccc(F)cc2F)on1 [Example 2.019]
44 nM	CN(C)C(=O)[C@@H]1CN(C2CCCC2)CC[C@H]1NC(=O)c1cc(-c2ccc(F)cc2F)on1 [Example 2.019a]
293 nM	CC(C)CCN1CC[C@@H](NC(=O)c2cc(-c3ccc(F)cc3F)on2)[C@H](C(=O)N(C)C)C1 [Example 2.021]
155 nM	CN(C)C(=O)[C@@H]1CN(CCC(C)(C)C)CC[C@H]1NC(=O)c1cc(-c2ccc(F)cc2F)on1 [Example 2.022]
37 nM	C[C@@H]1CCC[C@H]1N1CC[C@@H](NC(=O)c2cc(-c3ccc(F)cc3F)on2)[C@H](C(=O)N(C)C)C1 [Example 2.023]
9 nM	C[C@@H]1CCC[C@H]1N1CC[C@@H](NC(=O)c2cc(-c3ccc(F)cc3F)on2)[C@H](C(=O)N(C)C)C1 [Example 2.023a]

IC50	Compound
26 nM	C[C@@H]1CCC[C@H]1N1CC[C@@H](NC(=O)c2cc(-c3ccc(F)cc3F)on2)[C@H](C(=O)N(C)C)C1 [Example 2.023b]
101 nM	CN(C)C(=O)[C@@H]1CN(C2CCCC(C)(C)C2)CC[C@H]1NC(=O)c1cc(-c2ccc(F)cc2F)on1 (stereo partly drawn) [Example 2.024]
435 nM	CN(C)C(=O)[C@@H]1CN(C2CC3(CCC3)C2)CC[C@H]1NC(=O)c1cc(-c2ccc(F)cc2F)on1 [Example 2.025]
249 nM	CN(C)C(=O)[C@@H]1CN(C2CCC(F)CC2)CC[C@H]1NC(=O)c1cc(-c2ccc(F)cc2F)on1 (stereo partly drawn) [Example 2.026]
745 nM	CN(C)C(=O)[C@@H]1CN(C2CCC(F)(F)CC2)CC[C@H]1NC(=O)c1cc(-c2ccc(F)cc2F)on1 [Example 2.027]
60 nM	CN(C)C(=O)[C@@H]1CN(C2CCC2)CC[C@H]1NC(=O)c1cc(-c2ccc(F)cc2F)on1 [Example 2.028]
60 nM	CN(C)C(=O)[C@@H]1CN(CC2CC2)CC[C@H]1NC(=O)c1cc(-c2ccc(F)cc2F)on1 [Example 2.029]
558 nM	CN(C)C(=O)[C@@H]1CN(C2CC(C)(C)C2)CC[C@H]1NC(=O)c1cc(-c2ccc(F)cc2F)on1 [Example 2.031]
192 nM	CO[C@@H]1CCC[C@@H](N2CC[C@@H](NC(=O)c3cc(-c4ccc(F)cc4F)on3)[C@H](C(=O)N(C)C)C2)C1 [Example 2.032]
132 nM	CO[C@@H]1CCCC[C@H]1N1CC[C@@H](NC(=O)c2cc(-c3ccc(F)cc3F)on2)[C@H](C(=O)N(C)C)C1 [Example 2.033]
87 nM	CN(C)C(=O)[C@@H]1CN(CC2(C)CC2)CC[C@H]1NC(=O)c1cc(-c2ccc(F)cc2F)on1 [Example 2.034]
121 nM	CN(C)C(=O)[C@@H]1CN(CC2(C)CCC2)CC[C@H]1NC(=O)c1cc(-c2ccc(F)cc2F)on1 [Example 2.035]
165 nM	CN(C)C(=O)[C@@H]1CN(CC2=CCCC2)CC[C@H]1NC(=O)c1cc(-c2ccc(F)cc2F)on1 [Example 2.036]
161 nM	CN(C)C(=O)[C@@H]1CN([C@@H]2C[C@@H]3CC[C@@H]2C3)CC[C@H]1NC(=O)c1cc(-c2ccc(F)cc2F)on1 [Example 2.037]
99 nM	CN(C)C(=O)[C@@H]1CN(CC2CCC2)CC[C@H]1NC(=O)c1cc(-c2ccc(F)cc2F)on1 [Example 2.038]
83 nM	CN(C)C(=O)[C@@H]1CN(CCC2CC2)CC[C@H]1NC(=O)c1cc(-c2ccc(F)cc2F)on1 [Example 2.039]
114 nM	CN(C)C(=O)[C@@H]1CN(CC2CC2)CC[C@H]1NC(=O)c1cc(-c2ccc(F)cc2F)on1 [Example 2.045]
16 nM	CC(C1CC1)N1CC[C@@H](NC(=O)c2cc(-c3ccc(F)cc3F)on2)[C@H](C(=O)N(C)C)C1 (stereo partly drawn) [Example 2.046]
145 nM	CN(C)C(=O)[C@@H]1CN(C2CCCC23CC3)CC[C@H]1NC(=O)c1cc(-c2ccc(F)cc2F)on1 (stereo partly drawn) [Example 2.047]
